Experiments:
morningglory = assay: Test C preemergence; assay type: in vivo, Ipomoea coccinea; details: for Morningglory plant response rating: preemergence
Method in brief: (§1)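 Seeds are planted in blended loam soil and sand and treated preemergence, while seedlings in a peat moss/vermiculite medium receive postemergence sprays at 2 to 18 cm height. All plants stay in the greenhouse for 13 to 15 days before visual comparison with controls on a 0–100 scale.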

galium = assay: Test C preemergence; assay type: in vivo, Galium aparine; details: for Galium plant response rating: preemergence
Method in brief: as §1

wheat = assay: Test A postemergence; assay type: in vivo, Triticum aestivum; details: 0 to 100 scale where 0 is no effect and 100 is complete control
Method in brief: (§2)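 Compounds in non-phytotoxic solvent with surfactant applied as soil spray preemergence, or postemergence to plants 2-10 cm at one- to two-leaf stage, in loam/sand. After approximately 10 days in greenhouse, injury rated visually versus untreated controls, 0 (no effect) to 100 (complete control).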

barnyardgrass [1] = assay: Test A preemergence; assay type: in vivo, Echinochloa crus-galli; details: 0 to 100 scale where 0 is no effect and 100 is complete control
Method in brief: as §2

Italian ryegrass [2] = assay: Test A preemergence; assay type: in vivo, Lolium multiflorum; details: 0 to 100 scale where 0 is no effect and 100 is complete control
Method in brief: as §2

Italian ryegrass [3] = assay: Test C preemergence; assay type: in vivo, Lolium multiflorum; details: for Ryegrass, Italian plant response rating: preemergence
Method in brief: as §1

johnsongrass = assay: Test C preemergence; assay type: in vivo, Sorghum halepense; details: for Johnsongrass plant response rating: preemergence
Method in brief: as §1

Italian ryegrass [4] = assay: Test A postemergence; assay type: in vivo, Lolium multiflorum; details: 0 to 100 scale where 0 is no effect and 100 is complete control
Method in brief: as §2

barnyardgrass [5] = assay: Test A postemergence; assay type: in vivo, Echinochloa crus-galli; details: 0 to 100 scale where 0 is no effect and 100 is complete control
Method in brief: as §2

kochia = assay: Test A preemergence; assay type: in vivo, Kochia scoparia; details: 0 to 100 scale where 0 is no effect and 100 is complete control
Method in brief: as §2

[6] = 8 g ai/ha, scale 0 to 100 (0 no effect, 100 complete control)
[7] = 16 g ai/ha, scale 0 to 100 (0 no effect, 100 complete control)
[8] = 62 g ai/ha, scale 0 (no effect) to 100 (complete control)
[9] = Preemergence, 31 g ai/ha, scale 0 to 100, 0 no effect, 100 complete control

N#Cc1cnn(-c2c(C#N)cccc2Oc2ncc(Br)cn2)c1 [Compound 135]
Morningglory plant response rating (morningglory; [6]): 5 | Morningglory plant response rating (morningglory; [7]): 50 | Morningglory plant response rating (morningglory; [8]): 80 | Plant response rating, Morningglory (morningglory; [9]): 50 | Galium plant response rating (galium; [6]): 0 | Galium plant response rating (galium; [7]): 0 | Galium plant response rating (galium; [8]): 90 | Plant response rating, Galium (galium; [9]): 80 | Wheat plant response rating (wheat; 125 g ai/ha): 10 | Plant response rating, Wheat (wheat; 500 g ai/ha): 60 | Plant response rating, Barnyardgrass (barnyardgrass [1]; 125 g ai/ha): 40 | Barnyardgrass plant response rating (barnyardgrass [1]; 500 g ai/ha): 90 | Plant response rating, Ryegrass, Italian (Italian ryegrass [2]; 125 g ai/ha): 0 | Ryegrass, Italian plant response rating (Italian ryegrass [2]; 500 g ai/ha): 20 | Ryegrass, Italian plant response rating (Italian ryegrass [3]; [6]): 0 | Ryegrass, Italian plant response rating (Italian ryegrass [3]; [7]): 0 | Ryegrass, Italian plant response rating (Italian ryegrass [3]; [8]): 10 | Plant response rating, Ryegrass, Italian (Italian ryegrass [3]; [9]): 5 | Johnsongrass plant response rating (johnsongrass; [6]): 0 | Johnsongrass plant response rating (johnsongrass; [7]): 0 | Johnsongrass plant response rating (johnsongrass; [8]): 45 | Plant response rating, Johnsongrass (johnsongrass; [9]): 5 | Ryegrass, Italian plant response rating (Italian ryegrass [4]; 125 g ai/ha): 20 | Plant response rating, Ryegrass, Italian (Italian ryegrass [4]; 500 g ai/ha): 70 | Barnyardgrass plant response rating (barnyardgrass [5]; 125 g ai/ha): 40 | Plant response rating, Barnyardgrass (barnyardgrass [5]; 500 g ai/ha): 100 | Plant response rating, Kochia (kochia; 125 g ai/ha): 100 | Kochia plant response rating (kochia; 500 g ai/ha): 100
